Test system: Choristoneura fumiferana (spruce budworm) larvae
Test: Dietary rugulosin in artificial diet, spruce budworm larvae
Type: in vivo
Procedure: Spruce budworm (Choristoneura fumiferana) larvae were obtained from the colony at the Natural Resources Canada, Canadian Forest Service Laboratory in Sault Ste. Marie, Ontario and stored at 5° C. For each test, second instar larvae are put in creamer cups containing approximately 15 ml of artificial diet which had been prepared the day before and allowed to set overnight. The diet used is based on McMorran (1965) as modified by Forestry Canada. The cups are placed in a growth chamber at 22° C., 55% RH with 16 h light/day until they reach 4-5 instar as estimated by visually assessment. Batches of diet are prepared and suitable portions were measured out for addition of extracts, fractions or pure compounds. After 4 days on the test diet, the budworms were frozen, weighed and measured. The data was analyzed for dry weight reductions in comparison to controls and for changes in the distribution of insects at different instars in comparison to controls.
C. fumiferana larvae (spruce budworm) were obtained from Insect Production Services, Forestry Canada (Sault Ste. Marie, ON) and stored at 5° C. For each test, a sufficient number of larvae were hatched and put in creamer cups containing 15 ml of artificial diet. The diet was prepared in-house (McMorran 1965). The cups were placed in a growth chamber at 22° C., 55% RH with 16 h light/day until the larvae reached second/third instar (McGugan 1954). A suitable amount of diet was prepared, and 4 aliquots dispensed into a flask. Dilutions of pure rugulosin were made in 95% ethanol to provide the required concentrations (540 μl ethanol solution plus the vehicle control) and added to the flasks respectively. The diet was mixed with a stir bar and by the pipette used to dispense the media. Two drops of hot liquid diet were added with a 10 ml sterile pipette (0.1 g dry weight) to 4 ml tapered plastic sample cups (Fisher Scientific #025444, #25444A). […] Head capsule widths were determined using a stereo microscope at 40× with ocular and stage micrometers. […]

SMILES: Cc1cc(O)c2c(c1)C(=O)[C@]13C(=C2O)C(=O)[C@@H]2[C@H](O)[C@H]1[C@@H]1[C@@H](O)[C@H]3C(=O)C3=C(O)c4c(O)cc(C)cc4C(=O)[C@]312 [rugulosin]
- dietary rugulosin concentration with significantly reduced head capsule (artificial diet, 4 d): 100 µM
- dietary toxic effect level for rugulosin (dietary LOEL adjusted for mean ratio dry weight:wet weight of needles): 0.5 µg/g
- rugulosin concentration in vitro that affected budworm growth and development (in vitro (diet), Example 1): 1 µg/g

From US10674699B2, “Endophyte enhanced seedlings with increased pest tolerance” (priority 2006, dated 2020)
